# Reference: patent US20230355596A1, “COMPOSITIONS AND METHODS OF USING NMDAR INHIBITORS AND KINASE INHIBITORS TO TREAT LIVER CANCER” (The University of Hong Kong, priority 2022, published 2023)
# How the values were obtained:
# MHCC97L cells [1] = test: RNA-sequencing of drug-treated cells; type: cell-based, human; details: 10 μM ifenprodil, 5 μM sorafenib, 24 hours
# Description: 3×10^5 MHCC97L cells were seeded onto a 10 -cm dish. 10 μM ifenprodil, 5 μM sorafenib, or both were added to the cells 1 day after seeding, and the control group was treated with DMSO (Sigma-Aldrich). After 24 hours of drug treatment, RNA was extracted using the MiniBEST Universal RNA Extraction Kit (TaKaRa) following the manufacturer's protocol. The final product was eluted in DEPC-treated H2O (ThermoFisher Scientific). RNA-seq experiments were performed at the Centre for Genomic Sciences (LKS Faculty of Medicine, The University of Hong Kong). The Illumina adaptors of the paired-end raw sequence reads were trimmed by Trimmomatic 0.39. The STAR aligner version 2.7 was used to align the sequence reads to the human genome (GRCh38.p13, Ensembl release 99) and quantify read counts for each Ensembl gene feature, which generated the raw count gene matrix. Differential expression analysis was performed in R (v 3.6.3) using DESeq2 (1.26.0) with the raw count matrix as input. Three biological replicates each for the ifenprodil-, sorafenib-, and ifenprodil+sorafenib combination-treated groups are compared against the DMSO-treated negative control group. Differentially expressed genes (DEGs) were identified as genes with the absolute values of its shrunken log2 fold-changes bigger than 1 and a false discovery rate smaller than 0.05. Gene annotation was done using the bioMaRt (2.42.1) package with Ensembl Human genes (GRCh38.p13) dataset. Gene ontology enrichment analysis was performed on up/down regulated DEGs retrieved from either ifenprodil, sorafenib, or ifenprodil+sorafenib treatment using string v11.0 (internet site: string-db.org/). Top hits Gene ontologies (biological processes) were identified as GO enriched with a false discovery rate less than 0.01 and contain more than 40 observations for over-expressions and down-regulations of DEGs in total across all treatments. More specific GO terms containing fewer than 3000 genes and fewer than 300 observations across all treatments were then focused on.
# MHCC97L cells [2] = test: Cell cycle analysis (PI staining, flow cytometry); type: cell-based, human; details: 10 μM ifenprodil, 5 μM sorafenib, 24 hours
# Description: Cells transduced with florescent proteins were trypsinized, washed with PBS, and resuspended in PBS containing 2% FBS. Resuspended cells were subjected to flow cytometry analysis using the BD FACSCantoII, ACEA NovoCyte Quanteon (Agilent) or BD LSR Fortessa Analyzer (BD Biosciences). The signal of TurboRFP and EGFP was detected by a 561 nm yellow-green laser (610/20 nm) and a 488 nm blue laser (530/30 nm), respectively. For cell cycle analysis, cells harvested by trypsinization were washed by PBS. Cell pellets were fixed by ice-cold 70% ethanol at 4° C. for 1 hour. The fixed cells were rehydrated by replacing ethanol with PBS for 15 minutes at room temperature for cell cycle analysis. To remove RNAs, 5 μl RNase A (10 mg/ml) per 500 μl PBS was added and incubated at 37° C. for 15 minutes. The DNA contents were stained by propidium iodide (ThermoFisher Scientific) for 1 hour at room temperature in dark. Signal was detected by a 561 nm yellow-green laser (581/15 nm). FlowJo software (v10.5.3, Becton Dickinson) was used for data analysis. For cell sorting, cells were collected following the normal trypsinization and PBS washing steps. Cell pellets were resuspended in PBS with 2% FBS and 2X antibiotic-antimycotic. […] Signal was detected by a 488 nm blue laser (530/40 nm). ˜500-fold more cells were sorted into culture medium supplemented with 10% FBS and 2X antibiotic-antimycotic. […]
# HCC organoids = test: Limiting dilution spheroid formation assay on organoids; type: cell-based, human; details: 20 μM ifenprodil and 8 μM sorafenib, 3 days
# Description: Resuspended cells were cultured in DMEM/F12 (ThermoFisher Scientific) medium containing 0.25% methylcellulose (Sigma-Aldrich), 20 ng/ml EGF (Sigma-Aldrich), 10 ng/ml FGF (Sigma-Aldrich), 4 μg/ml insulin (Sigma-Aldrich), 1% B27 (ThermoFisher Scientific), and 1% antibiotic-antimycotic (ThermoFisher Scientific). Serial dilution of cells (5, 10, 20, 50, and 100 cells from the HCC cell lines and cells dissociated from the xenografts; 10, 20, 50, 100, 200 cells from the HCC organoids) were seeded onto a 96-well plate in 6 replicates for each dilution. Fresh medium was replenished every two days. The number of wells with spheroids formed were counted after a 10-day culture. The stem cell frequency was calculated using ELDA: Extreme Limiting Dilution Analysis (internet site bioinf.wehi.edu.au/software/elda/). In the data plots, the y-axis “fraction nonresponding” refers to the log proportion of number of cultures not responding to form spheroids, while the x-axis “dose (number of cells)” refers to the number of cells used in each culture. The slope of the line is the log-active cell fraction, representing the estimated active cell frequency in forming spheroids, and the dotted lines gives the 95% confidence interval.
# RIL-175 cells = test: Lung metastasis model (tail vein injection); type: in vivo, mouse; details: nude mice, 20 mg/kg ifenprodil, 28 mg/kg sorafenib, 10 days
SMILES,CDK1A expression (RNA-seq) compared to non-treated cells (MHCC97L cells [1]),CDK2 expression (RNA-seq) compared to non-treated cells (MHCC97L cells [1]),DDIT3 expression (RNA-seq) compared to non-treated cells (MHCC97L cells [1]),ERN1 expression (RNA-seq) compared to non-treated cells (MHCC97L cells [1]),G1-phase cell-cycle arrest (MHCC97L cells [2]),ability of HCC organoids to assemble tumor spheroids (HCC organoids),metastases of mouse HCC cells to form tumors in the lung (RIL-175 cells)
"CC(C(O)c1ccc(O)cc1)N1CCC(Cc2ccccc2)CC1 (centres unmarked) [Ifenprodil, ifenprodil]",significantly upregulated,significantly downregulated,significantly upregulated,no differences were observed,not with either IFEN or SOR alone,not either drug alone,did not affect the metastases
"CNC(=O)c1cc(Oc2ccc(NC(=O)Nc3ccc(Cl)c(C(F)(F)F)c3)cc2)ccn1 [Sorafenib, sorafenib]",significantly upregulated,significantly downregulated,significantly upregulated,significantly upregulated,not with either IFEN or SOR alone,not either drug alone,did not affect the metastases
